Assay results published in ChEMBL document CHEMBL4190331, “Discovery of Potent EV71 Capsid Inhibitors for Treatment of HFMD” (ACS Med Chem Lett, 2017).
pIC50: −log10 of the molar value. Active and inactive are the calls of the source. No cut-off for these calls is given here.

How the values were obtained:
[1] = Cytotoxicity against human RD cells assessed as reduction in cell viability after 72 hrs by CCK-8 assay
[2] = Stability in mouse liver microsomes; type: ADME, microsome
[3] = Clearance in CD-1 mouse at 2 mg/kg, iv administered as single dose; type: ADME, organism-based; conditions: in vivo
[4] = Elimination half life in CD-1 mouse at 2 mg/kg, iv administered as single dose; type: ADME, organism-based; conditions: in vivo, read-out: beta t1/2 (converted)
[5] = Volume of distribution in CD-1 mouse at 2 mg/kg, iv administered as single dose; type: ADME, organism-based; conditions: in vivo
[6] = AUC in CD-1 mouse at 2 mg/kg, iv administered as single dose; type: ADME, organism-based; conditions: in vivo
[7] = Cmax in CD-1 mouse at 5 mg/kg, ip administered as single dose; type: ADME, organism-based; parameters: dose 5 mg/kg, route intraperitoneal; conditions: in vivo
[8] = Tmax in CD-1 mouse at 5 mg/kg, ip administered as single dose; type: ADME, organism-based; conditions: in vivo
[9] = AUC in CD-1 mouse at 5 mg/kg, ip administered as single dose; type: ADME, organism-based; conditions: in vivo
[10] = […] bioavailability in CD-1 mouse at 5 mg/kg, ip administered as single dose; type: ADME, organism-based; conditions: in vivo, intraperitoneal
[11] = test system: Enterovirus A71; test: Antiviral activity against EV71 695F infected in ICR mouse assessed as protection against viral infection by measuring mouse survival at 10 mg/kg, ip qd administered for 7 days dosed prior to viral infection measured for 2 weeks relative to control; type: functional; conditions: Enterovirus A
[12] = test system: Enterovirus A71; test: Antiviral activity against EV71 695F infected in ICR mouse assessed as protection against viral infection by measuring mouse survival at 10 mg/kg, ip qd administered for 7 days dosed after viral infection measured for 2 weeks relative to control; type: functional; conditions: Enterovirus A
[13] = test system: Enterovirus A71; test: Antiviral activity against EV71 695F infected in ICR mouse assessed as decrease in body weight loss at 10 mg/kg, ip qd administered for 7 days dosed prior to viral infection measured for 2 weeks; type: functional, organism-based
[14] = test system: Enterovirus A71; test: Antiviral activity against EV71 695F infected in ICR mouse assessed as decrease in body weight loss at 10 mg/kg, ip qd administered for 7 days dosed after viral infection measured for 2 weeks; type: functional, organism-based
[15] = test system: Enterovirus A71; test: Antiviral activity against EV71 695F infected in ICR mouse assessed as effect on clinical score at 10 mg/kg, ip qd administered for 7 days dosed prior to viral infection measured for 2 weeks; type: functional, organism-based
[16] = test system: Enterovirus A71; test: Antiviral activity against EV71 695F infected in ICR mouse assessed as effect on clinical score at 10 mg/kg, ip qd administered for 7 days dosed after viral infection measured for 2 weeks; type: functional, organism-based
[17] = test system: Enterovirus A71; test: Antiviral activity against EV71 695F infected in ICR mouse assessed as protection against viral infection by measuring mouse survival at 0.4 mg/kg, ip qd administered for 7 days dosed prior to viral infection measured on day 14 relative to control; type: functional; conditions: Enterovirus A
[18] = test system: Enterovirus A71; test: Antiviral activity against EV71 695F infected in ICR mouse assessed as decrease in body weight loss at 0.4 mg/kg, ip qd administered for 7 days dosed prior to viral infection measured for 2 weeks; type: functional, organism-based
[19] = test system: Enterovirus A71; test: Antiviral activity against EV71 695F infected in ICR mouse assessed as effect on clinical score at 0.4 mg/kg, ip qd administered for 7 days dosed prior to viral infection measured for 2 weeks; type: functional, organism-based
[20] = Cmax in CD-1 mouse at 5 mg/kg, po administered as single dose; type: ADME, organism-based; parameters: dose 5 mg/kg, route oral; conditions: in vivo
[21] = Tmax in CD-1 mouse at 5 mg/kg, po administered as single dose; type: ADME, organism-based; conditions: in vivo
[22] = AUC in CD-1 mouse at 5 mg/kg, po administered as single dose; type: ADME, organism-based; conditions: in vivo
[23] = […] bioavailability in CD-1 mouse at 5 mg/kg administered as single dose; type: ADME, organism-based; conditions: in vivo, po
[24] = target: Voltage-gated inwardly rectifying potassium channel KCNH2 (Homo sapiens, UniProt Q12809); test: Inhibition of human ERG expressed in CHO-K1 cells by Qpatch assay
Voltage-gated inwardly rectifying potassium channel KCNH2, sequence (Q12809 whole entry): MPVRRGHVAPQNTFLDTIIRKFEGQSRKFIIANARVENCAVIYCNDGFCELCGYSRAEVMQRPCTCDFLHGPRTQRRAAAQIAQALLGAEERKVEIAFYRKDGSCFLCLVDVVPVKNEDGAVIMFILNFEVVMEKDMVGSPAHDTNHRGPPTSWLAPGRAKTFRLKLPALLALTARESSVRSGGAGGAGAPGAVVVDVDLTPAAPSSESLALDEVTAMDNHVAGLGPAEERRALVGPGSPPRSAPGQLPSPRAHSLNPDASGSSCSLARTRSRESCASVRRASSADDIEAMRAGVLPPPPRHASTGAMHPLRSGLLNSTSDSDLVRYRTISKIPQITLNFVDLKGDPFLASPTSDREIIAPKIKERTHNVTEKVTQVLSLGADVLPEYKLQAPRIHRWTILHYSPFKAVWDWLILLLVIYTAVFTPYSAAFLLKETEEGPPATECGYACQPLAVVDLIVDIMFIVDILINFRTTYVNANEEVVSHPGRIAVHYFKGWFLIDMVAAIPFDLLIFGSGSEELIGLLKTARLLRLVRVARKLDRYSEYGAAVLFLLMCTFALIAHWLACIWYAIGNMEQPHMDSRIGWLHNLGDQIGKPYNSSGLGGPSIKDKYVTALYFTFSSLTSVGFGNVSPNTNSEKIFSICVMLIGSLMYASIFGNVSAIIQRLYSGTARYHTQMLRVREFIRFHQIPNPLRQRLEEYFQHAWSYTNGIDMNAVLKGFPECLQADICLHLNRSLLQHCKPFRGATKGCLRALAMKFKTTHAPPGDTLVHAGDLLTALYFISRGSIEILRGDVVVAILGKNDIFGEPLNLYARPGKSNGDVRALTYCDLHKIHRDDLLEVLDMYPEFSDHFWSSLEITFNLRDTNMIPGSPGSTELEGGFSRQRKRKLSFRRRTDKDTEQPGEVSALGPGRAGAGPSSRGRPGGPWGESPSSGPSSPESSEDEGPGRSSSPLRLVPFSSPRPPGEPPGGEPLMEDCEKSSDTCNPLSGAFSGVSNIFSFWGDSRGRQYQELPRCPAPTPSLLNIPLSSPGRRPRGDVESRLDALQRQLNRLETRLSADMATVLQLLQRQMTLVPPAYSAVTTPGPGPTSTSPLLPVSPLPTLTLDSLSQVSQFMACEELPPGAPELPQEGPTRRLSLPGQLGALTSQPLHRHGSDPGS

[25] = test system: Mus musculus; test: Toxicity in ICR mouse infected with EV71 695F assessed as death at 100 mg/kg, ip qd administered for 7 days measured on day 5; type: organism-based; conditions: in vivo, 168 h
[26] = test system: Mus musculus; test: Toxicity in ICR mouse infected with EV71 695F assessed as death at 50 mg/kg, ip qd administered for 7 days measured on day 6; type: organism-based; conditions: in vivo, 168 h

O=C1CN(c2ccncc2)CCN1CCCCCOc1ccc(-c2ccc(Cl)cc2)cc1
CC50 at 72 h ([1]; rd): 3.2 µM
Stability [2]: 40 to 50 µL/min/mg
clearance [3]: 21 mL/min/kg
half-life [4]: 6 h
Vd [5]: 10 L/kg
AUC [6]: 3.34 µM·h
Cmax [7]: 1260 nM
Tmax [8]: 2 h
AUC [9]: 8.95 µM·h
bioavailability [10]: 112%

CCO/N=C1\CCc2cc(OCCCCCN3CCN(c4ccnc(N)c4)S3(=O)=O)ccc21
CC50 at 72 h ([1]; rd): 42 µM
clearance [3]: 34 mL/min/kg
half-life [4]: 1.5 h
Vd [5]: 2.8 L/kg
AUC [6]: 0.821 µM·h
Cmax [7]: 2150 nM
Tmax [8]: 0.7 h
AUC [9]: 3.87 µM·h
bioavailability [10]: 88%
survival at 10 mg/kg [11]: 100%
survival at 10 mg/kg [12]: 100%
Activity [13]: Active
Activity [14]: Active
Activity [15]: Active
Activity [16]: Active

O=C1N(CCCCc2cc3cc(-c4ccc(Cl)cc4)ccc3o2)CCN1c1ccncc1
CC50 at 72 h ([1]; RD cells): 4.3 µM

CCn1ncc2cc(OCCCCCN3CCN(c4ccnc(N)c4)S3(=O)=O)ccc21
CC50 at 72 h ([1]; RD cells): > 100 µM

CCc1noc2cc(OCCCCCN3CCN(c4ccnc(N)c4)S3(=O)=O)ccc12
CC50 at 72 h ([1]; RD cells): > 100 µM

O[C@H]1[C@H]2c3cc4c(cc3CN3CCC(=C[C@@H]1O)[C@H]23)OCO4 [LYCORINE]
survival at 0.4 mg/kg [17]: 30%
Activity [18]: Active
Activity [19]: Active

Nc1cc(N2CCN(CCCCCOc3ccc(-c4ccc(Cl)cc4)cc3)S2(=O)=O)ccn1
CC50 at 72 h ([1]; RD cells): > 100 µM

O=C1N(CCCCc2nc3cc(-c4ccc(Cl)cc4)ccc3o2)CCN1c1ccncc1
CC50 at 72 h ([1]; RD cells): > 100 µM

CCO/N=C/c1ccc(OCCC(C)CCN2CCN(c3ccnc(N)c3)C2=O)cc1 (configuration not stated)
CC50 at 72 h ([1]; rd): 5 µM
clearance [3]: 105 mL/min/kg
half-life [4]: 0.3 h
Vd [5]: 2.4 L/kg
AUC [6]: 0.371 µM·h
Cmax [7]: 1560 nM
Tmax [8]: 0.3 h
AUC [9]: 1.71 µM·h
bioavailability [10]: 92%

O=C1N(CCCCC2CCc3cc(-c4ccc(Cl)cc4)ccc3O2)CCN1c1ccncc1 (configuration not stated)
CC50 at 72 h ([1]; rd): 3.4 µM
Stability [2]: 40 to 50 µL/min/mg
clearance [3]: 6 mL/min/kg
half-life [4]: 5 h
Vd [5]: 3 L/kg
AUC [6]: 11 µM·h
Cmax [7]: 3360 nM
Tmax [8]: 1 h
AUC [9]: 23.2 µM·h
bioavailability [10]: 86%

CCO/N=C(\CC)c1ccc(OCCCCCN2CCN(c3ccnc(N)c3)S2(=O)=O)cc1
CC50 at 72 h ([1]; RD cells): > 100 µM

CCO/N=C1\CCCc2cc(OCCCCCN3CCN(c4ccnc(N)c4)S3(=O)=O)ccc21
CC50 at 72 h ([1]; RD cells): > 100 µM

CCO/N=C/c1ccc(OCCCCCN2CCN(c3ccnc(N)c3)S2(=O)=O)cc1
CC50 at 72 h ([1]; rd): > 100 µM
clearance [3]: 36 mL/min/kg
half-life [4]: 1.6 h
Vd [5]: 3.2 L/kg
AUC [6]: 0.592 µM·h
Cmax [7]: 1440 nM
Tmax [8]: 0.5 h
AUC [9]: 2.45 µM·h
bioavailability [10]: 79%

O=S1(=O)N(CCCCCOc2ccc(-c3ccc(Cl)cc3)cc2)CCN1c1ccncc1
CC50 at 72 h ([1]; RD cells): > 100 µM
Stability [2]: < 10 µL/min/mg
clearance [3]: 12 mL/min/kg
half-life [4]: 6 h
Vd [5]: 5 L/kg
AUC [6]: 5.71 µM·h
Cmax [7]: 682 nM
Tmax [8]: 2 h
AUC [9]: 9.01 µM·h
bioavailability [10]: 63%
Cmax [20]: 617 nM
Tmax [21]: 2 h
AUC [22]: 6.17 µM·h
bioavailability [23]: 43%
pIC50 [24]: < 4.52

O=C1N(CCCCCOc2ccc(-c3ccc(Cl)cc3)cc2)CCN1c1ccncc1
CC50 at 72 h ([1]; RD cells): > 100 µM
Stability [2]: 40 to 50 µL/min/mg
clearance [3]: 28 mL/min/kg
half-life [4]: 4 h
Vd [5]: 9 L/kg
AUC [6]: 2.73 µM·h
Cmax [7]: 453 nM
Tmax [8]: 2 h
AUC [9]: 4.28 µM·h
bioavailability [10]: 64%

CCn1ccc2cc(OCCCCCN3CCN(c4ccnc(N)c4)S3(=O)=O)ccc21
CC50 at 72 h ([1]; RD cells): > 100 µM

NC(=O)c1ncn([C@@H]2O[C@H](CO)[C@@H](O)[C@H]2O)n1 [RIBAVIRIN]
Activity [25]: Toxic
Activity [26]: Toxic

CCO/N=C(\C)c1ccc(OCCCCCN2CCN(c3ccnc(N)c3)S2(=O)=O)cc1
CC50 at 72 h ([1]; RD cells): > 100 µM
